Each block holds one molecule with its values, some of them ahead of it.
Experiments:
Rattus norvegicus [1] = experiment: In vivo drug formation in rat plasma sample treated with 1-((2R,3S,4R,5R)-5-Azido-3-fluoro-4-hydroxy-5-(hydroxymethyl)tetrahydrofuran-2-yl)-4-(cyclopropylamino)-pyrimidin-2(1H)-one by LC-MS/MS analysis; format: ADME, organism-based
Rattus norvegicus [2] = experiment: In vivo drug formation in rat bile sample treated with 1-((2R,3S,4R,5R)-5-Azido-3-fluoro-4-hydroxy-5-(hydroxymethyl)tetrahydrofuran-2-yl)-4-(cyclopropylamino)-pyrimidin-2(1H)-one by LC-MS/MS analysis; format: ADME, organism-based
Rattus norvegicus [3] = experiment: In vivo drug formation in rat urine sample treated with 1-((2R,3S,4R,5R)-5-Azido-3-fluoro-4-hydroxy-5-(hydroxymethyl)tetrahydrofuran-2-yl)-4-(cyclopropylamino)-pyrimidin-2(1H)-one by LC-MS/MS analysis; format: ADME, organism-based
Duck hepatitis B virus [4] = experiment: Antiviral activity against duck Hepatitis B virus infected in duck assessed as inhibition of viral DNA replication in serum at 20 mg/kg/day, po treatment initiated at day 5 after infection relative to control; format: functional; details: 120 h
Duck hepatitis B virus [5] = experiment: Antiviral activity against duck Hepatitis B virus infected in duck assessed as inhibition of viral DNA replication in serum at 20 mg/kg/day, po treatment initiated at day 10 after infection relative to control; format: functional; details: 240 h
Duck hepatitis B virus [6] = experiment: Antiviral activity against duck Hepatitis B virus infected in duck assessed as inhibition of viral DNA replication in serum at 20 mg/kg/day, po measured after 3 days of treatment withdrawal; format: functional; details: 72 h
Duck hepatitis B virus [7] = experiment: Antiviral activity against duck Hepatitis B virus infected in duck assessed as inhibition of viral DNA replication in liver at 20 mg/kg/day, po treatment initiated at day 5 after infection relative to control; format: functional; details: 120 h
Duck hepatitis B virus [8] = experiment: Antiviral activity against duck Hepatitis B virus infected in duck assessed as inhibition of viral DNA replication in liver at 20 mg/kg/day, po treatment initiated at day 10 after infection relative to control; format: functional; details: 240 h
Duck hepatitis B virus [9] = experiment: Antiviral activity against duck Hepatitis B virus infected in duck assessed as inhibition of viral DNA replication in liver at 20 mg/kg/day, po measured after 3 days of treatment withdrawal; format: functional; details: 72 h
[10] = Cmax in Sprague-Dawley rat at 32 mg/kg, po; format: ADME, organism-based; design: dose 32 mg/kg, route oral; details: in vivo
[11] = Tmax in Sprague-Dawley rat at 32 mg/kg, po; format: ADME, organism-based; details: in vivo
[12] = Oral bioavailability in Sprague-Dawley rat at 32 mg/kg; format: ADME, organism-based; details: in vivo
Hepatitis B virus [13] = experiment: Antiviral activity against Hepatitis B virus in HepG2.CW cells assessed as inhibition of viral DNA replication at 1 uM after 9 days by real-time FQ-PCR analysis; format: functional; details: 216 h
[14] = Cytotoxicity against human HepG2.2.15 cells by MTT assay; format: cell-based, HepG2 2.2.15
Hepatitis B virus [15] = experiment: Antiviral activity against Hepatitis B virus in HepG2.2.15 cells assessed as inhibition of intracellular viral DNA replication at 0.1 uM after 3 days by real-time FQ-PCR analysis; format: functional; details: HepG2 2.2.15, 72 h
Hepatitis B virus [16] = experiment: Antiviral activity against Hepatitis B virus in HepG2.2.15 cells assessed as inhibition of intracellular viral DNA replication at 0.1 uM after 6 days by real-time FQ-PCR analysis; format: functional; details: HepG2 2.2.15, 144 h
Hepatitis B virus [17] = experiment: Antiviral activity against Hepatitis B virus in HepG2.2.15 cells assessed as inhibition of intracellular viral DNA replication at 0.1 uM after 9 days by real-time FQ-PCR analysis; format: functional; details: HepG2 2.2.15, 216 h
Hepatitis B virus [18] = experiment: Antiviral activity against Hepatitis B virus in HepG2.2.15 cells assessed as inhibition of extracellular viral DNA replication at 0.1 uM after 3 days by real-time FQ-PCR analysis; format: functional; details: HepG2 2.2.15, 72 h
Hepatitis B virus [19] = experiment: Antiviral activity against Hepatitis B virus in HepG2.2.15 cells assessed as inhibition of extracellular viral DNA replication at 0.1 uM after 6 days by real-time FQ-PCR analysis; format: functional; details: HepG2 2.2.15, 144 h
Hepatitis B virus [20] = experiment: Antiviral activity against Hepatitis B virus in HepG2.2.15 cells assessed as inhibition of extracellular viral DNA replication at 0.1 uM after 9 days by real-time FQ-PCR analysis; format: functional; details: HepG2 2.2.15, 216 h
Hepatitis B virus [21] = experiment: Antiviral activity against wild type Hepatitis B virus; format: functional, organism-based
Hepatitis B virus [22] = experiment: Antiviral activity against lamivudine-resistant Hepatitis B virus; format: functional, organism-based
Rattus norvegicus [23] = experiment: In vivo drug formation in rat urine sample treated with 1-((2R,3S,4R,5R)-5-Azido-3-fluoro-4-hydroxy-5-(hydroxymethyl)tetrahydrofuran-2-yl)-4-(cyclopropylamino)-pyrimidin-2(1H)-one by NMR spectrum; format: ADME, organism-based

Drug metabolism (Rattus norvegicus [1]): metabolite_detected
Drug metabolism (Rattus norvegicus [2]): metabolite_detected
Drug metabolism (Rattus norvegicus [3]): metabolite_detected
SMILES: [N-]=[N+]=N[C@]1(CO)O[C@@H](n2ccc(NC3CC3O)nc2=O)[C@@H](F)[C@@H]1O (stereo not given in full)

Cmax [10]: 274 ng/mL
Tmax [11]: 5 h
bioavailability [12]: 18.7%
SMILES: Nc1ccn([C@@H]2CS[C@H](CO)O2)c(=O)n1 [LAMIVUDINE]
inhibition in vivo at 20 mg/kg/day (Duck hepatitis B virus [4]): 88.6%
inhibition in vivo at 20 mg/kg/day (Duck hepatitis B virus [5]): 82.2%
inhibition in vivo at 20 mg/kg/day (Duck hepatitis B virus [6]): 79.3%
inhibition in vivo at 20 mg/kg/day (Duck hepatitis B virus [7]): 52.7%
inhibition in vivo at 20 mg/kg/day (Duck hepatitis B virus [8]): 84%
inhibition in vivo at 20 mg/kg/day (Duck hepatitis B virus [9]): 76.2%

SMILES: C=C1[C@H](CO)[C@@H](O)C[C@@H]1n1cnc2c(=O)[nH]c(N)nc21
inhibition at 1 µM (Hepatitis B virus [13]): 95.7%
CC50 [14]: 30 µM
inhibition at 0.1 µM (Hepatitis B virus [15]): 37.8%
inhibition at 0.1 µM (Hepatitis B virus [16]): 40.6%
inhibition at 0.1 µM (Hepatitis B virus [17]): 57.6%
inhibition at 0.1 µM (Hepatitis B virus [18]): 38.2%
inhibition at 0.1 µM (Hepatitis B virus [19]): 47.8%
inhibition at 0.1 µM (Hepatitis B virus [20]): 78.6%

SMILES: CCC(C)Nc1ccn([C@@H]2O[C@@](CO)(N=[N+]=[N-])[C@@H](O)[C@@H]2F)c(=O)n1 (stereo not given in full)
inhibition at 1 µM (Hepatitis B virus [13]): 61.7%
CC50 [14]: > 125 µM

SMILES: CCNc1ccn([C@@H]2O[C@@](CO)(N=[N+]=[N-])[C@@H](O)[C@@H]2F)c(=O)n1
inhibition at 1 µM (Hepatitis B virus [13]): 78%
CC50 [14]: > 125 µM

SMILES: [N-]=[N+]=N[C@]1(CO)O[C@@H](n2ccc(=O)[nH]c2=O)[C@@H](F)[C@@H]1O
inhibition at 1 µM (Hepatitis B virus [13]): 75.5%
CC50 [14]: > 125 µM

SMILES: [N-]=[N+]=N[C@]1(CO)O[C@@H](n2ccc(N)nc2=O)[C@@H](F)[C@@H]1O [RO-0622]
EC50 (Hepatitis B virus [21]): 0.12 µM
EC50 (Hepatitis B virus [22]): 0.27 µM
Drug metabolism (Rattus norvegicus [3]): metabolite_detected
Drug metabolism (Rattus norvegicus [23]): metabolite_detected

SMILES: [N-]=[N+]=N[C@]1(CO)O[C@@H](n2ccc(N3CCCC3)nc2=O)[C@@H](F)[C@@H]1O
inhibition at 1 µM (Hepatitis B virus [13]): 33.1%
CC50 [14]: > 125 µM

SMILES: CN(C)c1ccn([C@@H]2O[C@@](CO)(N=[N+]=[N-])[C@@H](O)[C@@H]2F)c(=O)n1
inhibition at 1 µM (Hepatitis B virus [13]): 43.6%
CC50 [14]: > 125 µM

SMILES: CNc1ccn([C@@H]2O[C@@](CO)(N=[N+]=[N-])[C@@H](O)[C@@H]2F)c(=O)n1
inhibition at 1 µM (Hepatitis B virus [13]): 81.1%
CC50 [14]: > 125 µM

SMILES: CC(C)Nc1ccn([C@@H]2O[C@@](CO)(N=[N+]=[N-])[C@@H](O)[C@@H]2F)c(=O)n1
inhibition at 1 µM (Hepatitis B virus [13]): 43.7%
CC50 [14]: > 125 µM

SMILES: [N-]=[N+]=N[C@]1(CO)O[C@@H](n2ccc(NC3CCCCC3)nc2=O)[C@@H](F)[C@@H]1O
inhibition at 1 µM (Hepatitis B virus [13]): 23.6%
CC50 [14]: > 125 µM

SMILES: [N-]=[N+]=N[C@]1(CO)O[C@@H](n2ccc(NC3CCCC3)nc2=O)[C@@H](F)[C@@H]1O
inhibition at 1 µM (Hepatitis B virus [13]): 37.3%
CC50 [14]: > 125 µM

Drug metabolism (Rattus norvegicus [3]): metabolite_detected
SMILES: [N-]=[N+]=N[C@]1(CO)O[C@@H](n2ccc(NC3C(O)C3O)nc2=O)[C@@H](F)[C@@H]1O (stereo not given in full)

SMILES: CCN(CC)c1ccn([C@@H]2O[C@@](CO)(N=[N+]=[N-])[C@@H](O)[C@@H]2F)c(=O)n1
inhibition at 1 µM (Hepatitis B virus [13]): 7.1%
CC50 [14]: > 125 µM

Reference: ChEMBL document CHEMBL3580594, “Synthesis and biological evaluation of 4-substituted fluoronucleoside analogs for the treatment of hepatitis B virus infection” (J Med Chem, 2015)
